Measurements reported in patent publication US7803992B2, “Methods and compositions for expressing an herbicide-tolerant polynucleotide” (Pioneer Hi-Bred International, Inc., priority 2005, dated 2010).

Tests used:
Type in all cases: in vivo
[1] = system: parent elite stiff stalk inbred corn; test: Postemergence herbicide application in greenhouse: fresh shoot weight and visual injury; conditions: for pest or weed control at 200 g/ha: Zea mays, post-emergence, read-out: % Visual Injury; for Fresh Weight: weighed 2 weeks after treatment, untreated 76.4 g
[2] = system: Heterozygous GAT-HRA corn; test: as above; conditions: for pest or weed control at 200 g/ha: Zea mays, post-emergence, read-out: % Visual Injury; for Fresh Weight: weighed 2 weeks after treatment, untreated 98.8 g
[3] = system: Heterozygous GAT-HRA corn; test: Preemergence herbicide application in greenhouse: fresh shoot weight and visual injury; conditions: for pest or weed control at 200 g/ha: Zea mays, pre-emergence, 672 h, read-out: % Visual Injury; for Fresh Weight: fresh shoots weighed 4 weeks after treatment, untreated 47.0 g
[4] = system: parent elite stiff stalk inbred corn; test: as above; conditions: for pest or weed control at 200 g/ha: Zea mays, pre-emergence, 672 h, read-out: % Visual Injury; for Fresh Weight: fresh shoots weighed 4 weeks after treatment, untreated 36.7 g
[5] = postemergence, 200 g/ha (glyphosate 3472 g ae/ha, glufosinate ammonium 1870 g/ha), 0% no injury, 100% plant death, mean of four replications
[6] = postemergence, 200 g/ha (glyphosate 3472 g ae/ha, glufosinate ammonium 1870 g/ha), mean of four replications
[7] = preemergence, 200 g/ha, 0% no injury, 100% plant death, mean of four replications
[8] = preemergence, 200 g/ha, mean of four replications

Row | Structure (SMILES) | pest or weed control at 200 g/ha [1, 5] [%] | Fresh Weight [1, 6] [g] | pest or weed control at 200 g/ha [2, 5] [%] | Fresh Weight [2, 6] [g] | pest or weed control at 200 g/ha [3, 7] [%] | Fresh Weight [3, 8] [g] | pest or weed control at 200 g/ha [4, 7] [%] | Fresh Weight [4, 8] [g] | % Visual Injury [1, 5] [%] | % Visual Injury [2, 5] [%] | % Visual Injury [3, 7] [%] | % Visual Injury [4, 7] [%] | pest or weed control at 200 g/ha ([1]; […]) [%] | pest or weed control at 200 g/ha ([2]; […]) [%] | pest or weed control at 200 g/ha [3] [%] | pest or weed control at 200 g/ha [4] [%]
1 | COc1cc(OC)nc(NC(=O)NS(=O)(=O)N(C)S(C)(=O)=O)n1 [Amidosulfuron] | 71 | 32.0 | 8 | 107.4 | 25 | 47.7 | 97 | 14.2 | – | – | – | – | – | – | – | –
2 | COc1cc(OC)nc(NC(=O)NS(=O)(=O)c2c(-c3nnn(C)n3)cnn2C)n1 [Azimsulfuron] | 100 | 1.5 | 20 | 87.9 | 40 | 49.1 | 100 | 0.0 | – | – | – | – | – | – | – | –
3 | COC(=O)c1ccccc1CS(=O)(=O)NC(=O)Nc1nc(OC)cc(OC)n1 [Bensulfuron-methyl] | 93 | 9.0 | 14 | 103.3 | 10 | 39.9 | 23 | 28.4 | – | – | – | – | – | – | – | –
4 | CCOc1nc(F)cc2nc(S(=O)(=O)Nc3c(Cl)cccc3C(=O)OC)nn12 [Chloransulam-methyl] | – | 6.8 | – | 104.4 | – | 44.9 | – | 5.5 | 96 | 3 | 3 | 3 | – | – | – | –
5 | COc1nc(C)nc(NC(=O)NS(=O)(=O)c2ccccc2Cl)n1 [Chlorsulfuron] | 100 | 1.7 | 13 | 105.2 | 33 | 48.4 | 100 | 0.0 | – | – | – | – | – | – | – | –
6 | CCOc1nc(NC)nc(NC(=O)NS(=O)(=O)c2ccccc2C(=O)OC)n1 [Ethametsulfuron-methyl] | – | 5.6 | – | 98.0 | – | 50.1 | – | 1.6 | – | – | – | – | 96 | 6 | 88 | 100
7 | CCOc1ccccc1OS(=O)(=O)NC(=O)Nc1nc(OC)cc(OC)n1 [Ethoxysulfuron] | 88 | 24.3 | 15 | 79.3 | 25 | 40.0 | 63 | 28.1 | – | – | – | – | – | – | – | –
8 | COc1nn(C(=O)NS(=O)(=O)c2ccccc2OC(F)(F)F)c(=O)n1C [Flucarbazone Na^+, Flucarbazone] | – | 3.1 | – | 86.0 | – | 48.8 | – | 0.0 | 100 | 14 | 40 | 100 | – | – | – | –
9 | Cc1ccn2nc(S(=O)(=O)Nc3c(F)cccc3F)nc2n1 [Flumetsulam] | 85 | 12.8 | 3 | 103.8 | 13 | 39.1 | 13 | 24.6 | – | – | – | – | – | – | – | –
10 | COC(=O)c1ccc(C(F)(F)F)nc1S(=O)(=O)NC(=O)Nc1nc(OC)cc(OC)n1 [Flupyrsulfuron-methyl Na^+, Flupyrsulfuron-methyl] | – | 5.2 | – | 95.5 | – | 45.8 | – | 23.6 | 95 | 4 | 90 | 87 | – | – | – | –
11 | CP(=O)(O)CCC(N)C(=O)O (stereo not drawn) [Glufosinate ammonium] | – | 2.4 | – | 112.3 | – | – | – | – | – | – | – | – | 99 | 1 | – | –
